Data: patent US8247211B2, “Glycopeptide antibiotics” (American Cyanamid Company, priority 2001, dated 2012)
In brackets after ≈: the same amount, converted by molar mass. One block for each molecule: values may come before it. Numbered stars: 1 amine (or outer) side, 2 acyl side, 3 side chain; on linkers, the order of the positions; unused ones are H or OH. Square brackets hold non-standard residues; d marks the D form. Peptide text beside a SMILES is read from it. * marks the point of attachment. ξ: configuration not given here. X1 = N=C1NCC(C(O)C(N[*:1])C(=O)[*:2])N1C1OC(CO)C(O)C(O)C1O; ξEnduracididine(βξ-OH,4'ξ) = N=C1NCC(C(O)C(N)C(=O)O)N1; ξPhe(4-Cl,βξ-Me) = CC(c1ccc(Cl)cc1)C(N)C(=O)O; X2 = OCC1OC(OC2C(CO)OC(*)C(O)C2O)C(O)C(O)C1O

How the values were obtained:
Experiment in all cases: In vitro antibacterial evaluation: minimum inhibitory concentration (MIC), broth dilution method
Format in all cases: cell-based
Enterococcus sp. = conditions: Enterococcus avium (GC 4558); 18 hours at 35° C.
Procedure: (§1) The minimum inhibitory concentration (MIC), the lowest concentration of the antibiotic which inhibits growth of the test organism, is determined by the broth dilution method using Muller-Hinton II […] (Baltimore Biological Laboratories) following the recommendations of the National Committee for Clinical Laboratory Standards [Methods for dilution antimicrobial susceptibility tests for bacteria that grow aerobically, approved standard M7-A2, National Committee for Clinical Laboratory Standards, Villanova, Pa].
(§2) An inoculum level of 5×10^5 CFU/mL, and a range of antibiotic concentrations (64-0.06 μg/mL) is used. […] The test organisms include a spectrum of Gram-positive bacteria comprised of Staphylococcus sp., Streptococcus sp. and Enterococcus sp. These organisms include recent clinical isolates that are resistant to methicillin, penicillin and/or vancomycin.

Escherichia coli = Escherichia coli (GC 4560)
Procedure: as §1, §2

Streptococcus sp. = conditions: 18 hours at 35° C.
Procedure: as §1, §2

Staphylococcus sp. = conditions: 18 hours at 35° C.
Procedure: as §1, §2

MIC Enterococcus avium (GC 4558) (Enterococcus sp.): 64 µg/mL (≈ 43.8 µM) | MIC Escherichia coli (GC 4560) (Escherichia coli; 18 hours at 35° C.): 32 µg/mL (≈ 21.9 µM) | MIC Streptococcus pneumoniae (GC 1894) (Streptococcus sp.; Streptococcus pneumoniae (GC 1894)): 64 µg/mL (≈ 43.8 µM) | MIC Streptococcus pneumoniae (GC 1894) (Streptococcus sp.; broth dilution, inoculum 5×10^5 CFU/mL): 64 µg/mL (≈ 43.8 µM)
Structure (SMILES): CC(c1ccccc1)C1NC(=O)CNC(=O)C(CO)NC(=O)C(CC2CNC(=N)N2C2OC(CO)C(O)C(O)C2O)NC(=O)C(CC2CNC(=N)N2)NC(=O)C(Cc2ccc(OC3OC(CO)C(OC4OC(CO)C(O)C(O)C4OCc4ccc(OCc5ccccc5)cc4)C(O)C3O)cc2)NC1=O (stereo not shown) [Example 246c]

MIC Escherichia coli (GC 4560) (Escherichia coli): 16 µg/mL (≈ 12 µM) | MIC Coagulase Negative Staphylococcus (GC 4547) (Staphylococcus sp.): 64 µg/mL (≈ 48.1 µM) | MIC Coagulase Negative Staphylococcus (GC 4547) (Staphylococcus sp.; broth dilution): 64 µg/mL (≈ 48.1 µM) | MIC Coagulase Negative Staphylococcus (GC 4548) (Staphylococcus sp.): 64 µg/mL (≈ 48.1 µM) | MIC Coagulase Negative Staphylococcus (GC 4548) (Staphylococcus sp.; broth dilution): 64 µg/mL (≈ 48.1 µM) | MIC Coagulase Negative Staphylococcus (GC 4549) (Staphylococcus sp.): 16 µg/mL (≈ 12 µM) | MIC Coagulase Negative Staphylococcus (GC 4549) (Staphylococcus sp.; broth dilution): 16 µg/mL (≈ 12 µM) | MIC Staphylococcus aureus (ATCC 29213) (Staphylococcus sp.): 64 µg/mL (≈ 48.1 µM) | MIC Staphylococcus aureus (ATCC 29213) (Staphylococcus sp.; broth dilution): 64 µg/mL (≈ 48.1 µM) | MIC Staphylococcus aureus (GC 4541) (Staphylococcus sp.): 64 µg/mL (≈ 48.1 µM) | MIC Staphylococcus aureus (GC 4541) (Staphylococcus sp.; broth dilution): 64 µg/mL (≈ 48.1 µM) | MIC Staphylococcus aureus (GC 4544) (Staphylococcus sp.): 64 µg/mL (≈ 48.1 µM) | MIC Staphylococcus aureus (GC 4544) (Staphylococcus sp.; broth dilution): 64 µg/mL (≈ 48.1 µM) | MIC Staphylococcus aureus (GC 4545) (Staphylococcus sp.): 64 µg/mL (≈ 48.1 µM) | MIC Staphylococcus aureus (GC 4545) (Staphylococcus sp.; broth dilution): 64 µg/mL (≈ 48.1 µM) | MIC Staphylococcus aureus-SMITH (GC 4543) (Staphylococcus sp.): 64 µg/mL (≈ 48.1 µM) | MIC Staphylococcus aureus-SMITH (GC 4543) (Staphylococcus sp.; broth dilution): 64 µg/mL (≈ 48.1 µM) | MIC Streptococcus agalactiae (GC 4564) (Streptococcus sp.; Streptococcus agalactiae (GC 4564)): 32 µg/mL (≈ 24.1 µM) | MIC Streptococcus pyogenes (ID-3187) (Streptococcus sp.; Streptococcus pyogenes (ID-3187)): 32 µg/mL (≈ 24.1 µM)
Structure (SMILES): CC(c1ccc(Cl)cc1)C1NC(=O)CNC(=O)C(CO)NC(=O)C(C(O)C2CNC(=N)N2C2OC(CO)C(O)C(O)C2O)NC(=O)C(C(O)C2CNC(=N)N2)NC(=O)C(Cc2ccc(OC3OC(CO)C(OC4OC(CO)C(O)C(O)C4O)C(O)C3O)cc2)NC1=O (stereo not drawn) [Example 262a, Cyclo[glycyl-4-chloro-β-methylphenylalanyl-O-(4-O-hexopyranosylhexopyranosyl)tyrosyl-3-(2-iminoimidazolidin-4-yl)seryl-3-(3-hexopyranosyl-2-iminoimidazolidin-4-yl)serylseryl]] (cyclo(G[ξPhe(4-Cl,βξ-Me)]Y(X2)[ξEnduracididine(βξ-OH,4'ξ)][X1]S); configuration not given here)
MIC Staphylococcus haemolyticus (GC 4546) (Staphylococcus sp.): 64 µg/mL (≈ 48.1 µM) | MIC Staphylococcus haemolyticus (GC 4546) (Staphylococcus sp.; broth dilution): 64 µg/mL (≈ 48.1 µM)
